IC50 data for 25 compounds are collected here from patent US6248739A, “Quinolinecarboxamides as antiviral agents” (Pharmacia & Upjohn Company, priority 1999, dated 2001).

Read-outs that look alike come from different tables or passages of the source.

In test [1] the target is VZV polymerase (Varicella-zoster virus, UniProt P09252). As to the kind of experiment: VZV polymerase assay (Table 1). In kind it is biochemical.
The target of test [2] is HSV polymerase (Human herpesvirus 1, UniProt P04293). In words: HSV polymerase assay (Table 1). Format: biochemical.
HSV polymerase, sequence (P04293 whole entry): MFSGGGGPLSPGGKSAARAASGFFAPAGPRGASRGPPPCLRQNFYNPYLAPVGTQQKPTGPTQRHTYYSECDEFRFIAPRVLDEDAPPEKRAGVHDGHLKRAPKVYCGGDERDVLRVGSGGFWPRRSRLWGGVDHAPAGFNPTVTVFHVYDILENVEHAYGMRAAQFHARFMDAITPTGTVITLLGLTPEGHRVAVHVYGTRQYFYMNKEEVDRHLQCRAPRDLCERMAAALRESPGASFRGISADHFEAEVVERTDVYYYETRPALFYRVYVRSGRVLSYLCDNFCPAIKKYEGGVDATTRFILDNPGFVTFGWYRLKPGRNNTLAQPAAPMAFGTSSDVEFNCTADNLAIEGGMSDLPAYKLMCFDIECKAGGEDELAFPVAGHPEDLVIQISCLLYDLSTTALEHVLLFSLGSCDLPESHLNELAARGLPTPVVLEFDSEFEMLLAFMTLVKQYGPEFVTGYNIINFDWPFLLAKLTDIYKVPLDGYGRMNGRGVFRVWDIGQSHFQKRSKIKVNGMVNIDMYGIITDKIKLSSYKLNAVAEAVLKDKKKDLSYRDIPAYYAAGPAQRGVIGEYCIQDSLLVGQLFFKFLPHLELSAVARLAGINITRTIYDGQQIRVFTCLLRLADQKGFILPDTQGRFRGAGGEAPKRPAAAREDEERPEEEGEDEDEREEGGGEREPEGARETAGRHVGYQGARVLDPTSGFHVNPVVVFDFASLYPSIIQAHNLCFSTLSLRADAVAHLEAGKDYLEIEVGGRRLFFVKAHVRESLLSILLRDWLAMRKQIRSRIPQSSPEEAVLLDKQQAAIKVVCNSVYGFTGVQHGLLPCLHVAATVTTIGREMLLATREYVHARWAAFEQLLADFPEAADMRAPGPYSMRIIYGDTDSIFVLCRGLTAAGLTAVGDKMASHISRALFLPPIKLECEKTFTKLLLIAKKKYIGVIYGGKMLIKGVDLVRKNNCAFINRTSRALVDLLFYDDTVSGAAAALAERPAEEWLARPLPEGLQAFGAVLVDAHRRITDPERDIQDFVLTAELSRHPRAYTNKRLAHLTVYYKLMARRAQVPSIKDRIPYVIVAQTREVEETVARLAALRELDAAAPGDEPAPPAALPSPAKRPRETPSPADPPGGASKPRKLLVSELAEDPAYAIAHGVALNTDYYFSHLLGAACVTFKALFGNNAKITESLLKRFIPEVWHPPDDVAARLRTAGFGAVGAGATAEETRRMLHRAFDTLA
The target of test [3] is T1, HCMV polymerase (Human cytomegalovirus, UniProt P08546).
T1 construct: made in house; host or cells: recombinant baculovirus-infected SF-9 insect cells
T1 sequence (P08546 whole entry): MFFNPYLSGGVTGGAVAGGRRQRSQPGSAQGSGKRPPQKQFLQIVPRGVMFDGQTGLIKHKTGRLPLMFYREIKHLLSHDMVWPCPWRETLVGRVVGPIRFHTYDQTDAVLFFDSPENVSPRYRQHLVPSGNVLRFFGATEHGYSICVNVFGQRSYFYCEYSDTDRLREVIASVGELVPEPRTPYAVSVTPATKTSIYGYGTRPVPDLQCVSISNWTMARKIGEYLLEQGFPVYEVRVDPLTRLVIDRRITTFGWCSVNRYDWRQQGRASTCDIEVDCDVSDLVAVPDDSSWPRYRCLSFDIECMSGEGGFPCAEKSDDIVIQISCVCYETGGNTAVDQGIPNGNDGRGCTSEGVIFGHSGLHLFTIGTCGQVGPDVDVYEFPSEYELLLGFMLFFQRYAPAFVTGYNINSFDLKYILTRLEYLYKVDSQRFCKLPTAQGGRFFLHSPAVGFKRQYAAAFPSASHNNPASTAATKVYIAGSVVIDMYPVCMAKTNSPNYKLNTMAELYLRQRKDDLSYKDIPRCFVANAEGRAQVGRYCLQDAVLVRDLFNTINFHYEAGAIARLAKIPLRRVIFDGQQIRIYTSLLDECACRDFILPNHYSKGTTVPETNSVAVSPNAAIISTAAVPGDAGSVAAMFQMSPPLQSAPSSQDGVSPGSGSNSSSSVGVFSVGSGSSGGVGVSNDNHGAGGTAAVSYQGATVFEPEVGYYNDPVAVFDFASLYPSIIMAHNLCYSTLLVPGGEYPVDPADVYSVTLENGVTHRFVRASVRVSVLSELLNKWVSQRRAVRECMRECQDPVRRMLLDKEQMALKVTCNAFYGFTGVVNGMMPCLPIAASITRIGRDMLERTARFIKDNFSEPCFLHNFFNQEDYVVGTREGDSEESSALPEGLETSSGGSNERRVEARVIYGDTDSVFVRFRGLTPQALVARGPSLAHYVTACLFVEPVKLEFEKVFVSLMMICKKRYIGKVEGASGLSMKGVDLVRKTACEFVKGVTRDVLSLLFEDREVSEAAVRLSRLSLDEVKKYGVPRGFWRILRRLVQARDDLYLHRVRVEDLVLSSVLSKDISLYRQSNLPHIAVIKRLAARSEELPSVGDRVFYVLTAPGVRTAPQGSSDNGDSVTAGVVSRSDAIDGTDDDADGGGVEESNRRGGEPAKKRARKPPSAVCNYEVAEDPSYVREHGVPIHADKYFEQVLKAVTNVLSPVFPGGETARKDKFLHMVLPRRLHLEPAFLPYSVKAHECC
As to the kind of experiment: biochemical. The method in brief:
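Scintillation proximity assay with baculovirus/SF-9-expressed HCMV polymerase, 90 nM ³H-dTTP and 6 nM biotinylated poly(dA)-oligo(dT) in HEPES pH 7.5/KCl/MgCl2/BSA, ±2 mM CHAPS, 25 or 37 °C, 30 min for HCMV. Modified version: compounds diluted in 100% DMSO, 4.5 mM DTT added. IC50 from linear regression.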

[4] abbreviates: HCMV polymerase, SPA, modified assay: compounds in 100% DMSO, 4.5 mM DTT.

VZV polymerase, sequence (P09252 whole entry): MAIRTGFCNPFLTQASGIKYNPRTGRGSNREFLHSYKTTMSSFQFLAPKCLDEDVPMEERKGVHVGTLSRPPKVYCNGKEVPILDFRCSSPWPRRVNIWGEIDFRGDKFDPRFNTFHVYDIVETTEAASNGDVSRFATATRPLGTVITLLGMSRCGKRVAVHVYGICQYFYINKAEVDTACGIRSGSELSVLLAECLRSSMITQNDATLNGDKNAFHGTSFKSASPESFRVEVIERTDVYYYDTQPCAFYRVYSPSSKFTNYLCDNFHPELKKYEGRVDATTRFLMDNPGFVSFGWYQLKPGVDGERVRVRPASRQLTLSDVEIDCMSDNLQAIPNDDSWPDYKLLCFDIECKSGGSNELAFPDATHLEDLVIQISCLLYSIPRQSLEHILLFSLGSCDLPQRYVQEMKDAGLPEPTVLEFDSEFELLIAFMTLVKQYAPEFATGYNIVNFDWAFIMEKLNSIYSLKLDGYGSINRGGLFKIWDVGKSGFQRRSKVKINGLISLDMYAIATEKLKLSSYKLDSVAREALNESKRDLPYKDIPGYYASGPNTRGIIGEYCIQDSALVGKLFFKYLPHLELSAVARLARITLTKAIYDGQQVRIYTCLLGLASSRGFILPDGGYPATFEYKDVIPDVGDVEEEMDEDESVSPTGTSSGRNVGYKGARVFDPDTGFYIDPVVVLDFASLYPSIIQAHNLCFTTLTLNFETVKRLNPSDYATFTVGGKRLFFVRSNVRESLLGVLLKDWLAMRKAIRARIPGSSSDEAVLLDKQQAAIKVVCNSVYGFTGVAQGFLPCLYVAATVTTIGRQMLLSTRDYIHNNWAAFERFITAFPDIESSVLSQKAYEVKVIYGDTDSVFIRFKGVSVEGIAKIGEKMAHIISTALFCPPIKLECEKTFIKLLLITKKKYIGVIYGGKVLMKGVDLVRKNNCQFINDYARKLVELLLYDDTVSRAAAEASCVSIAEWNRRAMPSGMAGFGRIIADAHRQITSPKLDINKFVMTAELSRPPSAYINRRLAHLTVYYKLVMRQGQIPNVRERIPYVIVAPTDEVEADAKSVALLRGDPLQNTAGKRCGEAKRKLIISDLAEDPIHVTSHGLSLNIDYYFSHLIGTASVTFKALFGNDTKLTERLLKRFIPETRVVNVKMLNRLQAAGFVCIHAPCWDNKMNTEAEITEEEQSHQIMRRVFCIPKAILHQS

`O=C(NCc1ccc(Cl)cc1)c1cn(C2CC2)c2ccc(C#CCO)cc2c1=O` [Example 25, N-(4-Chlorobenzyl)-1-cyclopropyl-6-(3-hydroxy-1-propynyl)-4-oxo-1,4-dihydro-3-quinolinecarboxamide]: the IC50 came out at 1.5 µM in test [1], 1.6 µM in test [2] and 1.6 µM in test [3] (setting [4]). For the compound `CSCCCn1cc(C(=O)NCc2ccc(Cl)cc2)c(=O)c2cc(CN3CCOCC3)ccc21` [Example 61, N-(4-Chlorobenzyl)-1-[3-(methylsulfanyl)propyl]-6-(4-morpholinylmethyl)-4-oxo-1,4-dihydro-3-quinolinecarboxamide], the IC50 in test [1] came out at 0.5 µM; in test [2], 0.9 µM; in test [3] (setting [4]), 1.1 µM. `C[S+]([O-])CCCn1cc(C(=O)NCc2ccc(Cl)cc2)c(=O)c2cc(CN3CCOCC3)ccc21` (stereo not shown) [Example 65, N-(4-Chlorobenzyl)-1-[3-(methylsulfinyl)propyl]-6-(4-morpholinylmethyl)-4-oxo-1,4-dihydro-3-quinolinecarboxamide]: the IC50 came to 0.63 µM in test [1], 1 µM in test [2] and 0.9 µM in test [3] (setting [4]). `O=C(NCc1ccc(Cl)cc1)c1cn(CSc2ccc(Cl)cc2)c2ccc(CN3CCOCC3)cc2c1=O` [Example 101, N-(4-Chlorobenzyl)-1-([(4-chlorophenyl)sulfanyl]methyl)-6-(4-morpholinylmethyl)-4-oxo-1,4-dihydro-3-quinolinecarboxamide] came in with an IC50 in test [3] (setting [4]) of 0.3 µM. In turn, `COn1cc(C(=O)NCc2ccc(Cl)cc2)c(=O)c2ccccc21` [Example 123, N-(4-Chlorobenzyl)-1-methoxy-4-oxo-1,4-dihydro-3-quinolinecarboxamide] came in with an IC50 in test [3] (setting [4]) of 8.2 µM.

In turn, `CCS(=O)(=O)CCn1cc(C(=O)NCc2ccc(Cl)cc2)c(=O)c2cc(CN3CCOCC3)ccc21` [Example 69, N-(4-Chlorobenzyl)-1-[2-(ethylsulfonyl)ethyl]-6-(4-morpholinylmethyl)-4-oxo-1,4-dihydro-3-quinolinecarboxamide] yielded an IC50 in test [3] (setting [4]) of 0.9 µM. Still for that read-out and setting: under `Cn1cc(C(=O)NCc2ccc(Cl)cc2)c(=O)c2cc(CN3CC(=NO)C3)ccc21` [Example 99, N-(4-Chlorobenzyl)-6-{[3-(ydroxyimino)-1-azetidinyl]methyl}-1-methyl-4-oxo-1,4-dihydro-3-quinolinecarboxamide] stands 8 µM.

`Cn1cc(C(=O)NCc2ccc(Cl)cc2)c(=O)c2cc(CN3CCOc4ccccc43)ccc21` [Example 49, N-(4-Chlorobenzyl)-6-(2,3-dihydro-4H-1,4-benzoxazin-4-ylmethyl)-1-methyl-4-oxo-1,4-dihydro-3-quinolinecarboxamide] had an IC50 in test [3] (setting [4]) of 2.2 µM.

As to `CCSCCn1cc(C(=O)NCc2ccc(Cl)cc2)c(=O)c2cc(CN3CCOCC3)ccc21` [Example 60, N-(4-Chlorobenzyl)-1-[2-(ethylsulfanyl)ethyl]-6-(4-morpholinylmethyl)-4-oxo-1,4-dihydro-3-quinolinecarboxamide], the midpoint of inhibition in test [3] (setting [4]), the IC50, lay at 1.1 µM. Same read-out and setting: under `O=C(NCc1ccc(Cl)cc1)c1cn(CCN(CCO)CCO)c2ccc(CN3CCOCC3)cc2c1=O` [Example 64] stands 0.95 µM; under `CN1CCC(n2cc(C(=O)NCc3ccc(Cl)cc3)c(=O)c3cc(CN4CCOCC4)ccc32)CC1` [Example 109, N-(4-Chlorobenzyl)-1-(1-methyl-4-piperidinyl)-6-(4-morpholinylmethyl)-4-oxo-1,4-dihydro-3-quinolinecarboxamide], 0.48 µM. In turn, `Cn1cc(C(=O)NCc2ccc(Cl)cc2)c(=O)c2cc(CN3CC(O)(O)C3)ccc21` [Example 78, N-(4-Chlorobenzyl)-6-[(3,3-dihydroxy-1-azetidinyl)methyl]-1-methyl-4-oxo-1,4-dihydro-3-quinolinecarboxamide] gave an IC50 in test [3] (setting [4]) of 0.27 µM.

The compound `Cn1cc(C(=S)NCc2ccc(Cl)cc2)c(=O)c2cc(C#CCO)ccc21` [Example 94, N-(4-chlorobenzyl)-6-(3-hydroxy-1-propynyl)-1-methyl4-oxo-1,4-dihydro-3-quinolinecarbothioamide] gave an IC50 in test [3] (setting [4]) of 0.77 µM. On the same count and under the same terms, under `O=C(NCc1ccc(Cl)cc1)c1cn(CCCN2CCCCC2)c2ccc(C#CCO)cc2c1=O` [Example 15, N-(4-Chlorobenzyl)-6-(3-hydroxy-1-propynyl)-1-[3-(1-piperidinyl)propyl]-4-oxo-1,4-dihydro-3-quinolinecarboxamide] stands 4.1 µM; under `O=C(NCc1ccc(Cl)cc1)c1cn(CCSc2ccccc2)c2ccc(CN3CCOCC3)cc2c1=O` [Example 72], 3 µM; under `COCCOCCn1cc(C(=O)NCc2ccc(Cl)cc2)c(=O)c2cc(CN(C)CC(O)c3ccc(O)cc3)ccc21` (stereo not shown) [Example 90, N-(4-Chlorobenzyl)-6-{[[2-hydroxy-2-(4-hydroxyphenyl)ethyl](methyl)amino]methyl}-1-[2-(2-methoxyethoxy)ethyl]-4-oxo-1,4-dihydro-3-quinolinecarboxamide], 4.4 µM. Still for that read-out and setting: the same measure for `Cn1cc(C(=O)NCc2ccc(C#N)cc2)c(=O)c2cc(C#CCO)ccc21` [Example 43, N-(4-Cyanobenzyl)-6-(3-hydroxy-1-propynyl)-1-methyl-4-oxo-1,4-dihydro-3-quinolinecarboxamide]: 9.4 µM. Same read-out and setting: under `Cn1cc(C(=O)NCc2ccc(Cl)cc2)c(=O)c2cc(/C=C\CO)ccc21` [Example 23, N-(4-chlorobenzyl)-6-[(Z)-3-hydroxy-1-propenyl]-1-methyl-4-oxo-1,4-dihydro-3-quinolinecarboxamide] stands 0.62 µM. In turn, `CN(CCS(=O)(=O)O)C(=O)CCCCCCC(=O)OCCCc1ccc2c(c1)c(=O)c(C(=O)NCc1ccc(Cl)cc1)cn2C1CC1` returned a half-maximal inhibitory concentration (IC50) in test [3] (setting [4]) above 20 µM. On to `COCCOCCn1cc(C(=O)NCc2ccc(Cl)cc2)c(=O)c2cc(C#CCO)ccc21` [Example 42, N-(4-Chlorobenzyl)-6-(3-hydroxy-1-propynyl)-1-[2-(2-methoxyethoxy)ethyl]-4-oxo-1,4-dihydro-3-quinolinecarboxamide], for which, in test [3] (setting [4]), it took 1.2 µM to reach half-maximal inhibition (IC50). As for `CS(=O)(=O)CCCn1cc(C(=O)NCc2ccc(Cl)cc2)c(=O)c2cc(CN3CCOCC3)ccc21` [Example 67, N-(4-Chlorobenzyl)-1-[3-(methylsulfonyl)propyl]-6-(4-morpholinylmethyl)-4-oxo-1,4dihydro-3-quinolinecarboxamide], 0.7 µM corresponded to half-maximal inhibition in test [3] (setting [4]) (IC50). With `COCCOCCn1cc(C(=O)NCc2ccc(Cl)cc2)c(=O)c2cc(CSC)ccc21` [Example 93, N-(4-Chlorobenzyl)-1-[2-(2-methoxyethoxy)ethyl]-6-[(methylsulfanyl)methyl]-4-oxo-1,4-dihydro-3-quinolinecarboxamide], in test [3] (setting [4]), the IC50 is 6.2 µM. Regarding `COCCOCn1cc(C(=O)NCc2ccc(Cl)cc2)c(=O)c2cc(CN3CCOCC3)ccc21` [Example 105, N-(4-Chlorobenzyl)-1-[(2-methoxyethoxy)methyl]-6-(4-morpholinylmethyl)-4-oxo-1,4-dihydro-3-quinolinecarboxamide], the IC50 in test [3] (setting [4]) was 1.3 µM.

Take `O=C(NCc1ccc(Cl)cc1)c1cn(CCN2CCOCC2)c2ccc(C#CCO)cc2c1=O` [Example 19, N-(4-Chlorobenzyl)-6-(3-hydroxy-1-propynyl)-1-[2-(4-morpholinyl)ethyl]-4-oxo-1,4-dihydro-3-quinolinecarboxamide]: 1.8 µM corresponded to half-maximal inhibition in test [3] (IC50). In turn, `Cn1cc(C(=O)NCc2ccc(Cl)cc2)c(=O)c2cccc(C#CCO)c21` [Example 96, N-(4-Chlorobenzyl)-8-(3-hydroxy-1-propynyl)-1-methyl-4-oxo-1,4-dihydro-3-quinolinecarboxamide] showed an IC50 in test [3] (setting [4]) of 1 µM.
